Among the data in patent publication US8507541B2, “N-hydroxyamidinoheterocycles as modulators of indoleamine 2,3-dioxygenase” (Incyte Corporation, priority 2006, dated 2013) are formation of tumors, growth of tumors and IC50 values, retold here.

The subject of experiment [1] is LLC tumors. Conditions: LLC tumors in C57Bl/6 mice, versus placebo (Friberg et al); cited from earlier work.
Experiment [2] has as its system P815 tumor. The note with it: pre-immunized immune-competent mice, P815 (Uyttenhove et al); cited from earlier work.
For experiment [3], the target named is T1, Human idoleamine 2,3-dioxygenase (IDO) (Homo sapiens, UniProt P14902).
T1 construct: His tag (N); made in house; host or cells: E. coli
T1 sequence (P14902 whole entry): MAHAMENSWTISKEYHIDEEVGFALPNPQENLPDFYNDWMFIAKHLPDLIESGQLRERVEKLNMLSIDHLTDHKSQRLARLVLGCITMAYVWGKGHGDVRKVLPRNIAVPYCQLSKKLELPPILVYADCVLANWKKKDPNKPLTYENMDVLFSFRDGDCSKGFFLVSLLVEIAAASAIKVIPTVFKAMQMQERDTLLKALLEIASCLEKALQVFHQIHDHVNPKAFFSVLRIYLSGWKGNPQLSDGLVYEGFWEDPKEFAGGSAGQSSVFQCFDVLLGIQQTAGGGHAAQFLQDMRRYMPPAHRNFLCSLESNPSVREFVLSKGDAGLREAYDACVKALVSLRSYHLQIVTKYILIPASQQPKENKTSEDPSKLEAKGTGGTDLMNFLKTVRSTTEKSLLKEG
Briefly: Human indoleamine 2,3-dioxygenase (IDO) enzyme assay. The experiment is classed as biochemical. The note with it: 95 nM IDO, 2 mM D-Trp, pH 6.5, room temperature, absorbance at 321 nm. The procedure:
Human idoleamine 2,3-dioxygenase (IDO) with an N-terminal His tag was expressed in E. coli and purified to homogeneity. IDO catalyzes the oxidative cleavage of the pyrrole ring of the indole nucleus of tryptophan to yield N′-formylkynurenine. The assays were performed at room temperature as described in the literature using 95 nM IDO and 2 mM D-Trp in the presence of 20 mM ascorbate, 5 μM methylene blue and 0.2 mg/mL catalase in 50 mM potassium phosphate buffer (pH 6.5). The initial reaction rates were recorded by continuously following the absorbance increase at 321 nm due to the formation of N′-formylkynurenine. […] The symbol “+” indicates IC50<1000 […].

pIC50: −log10 of the molar value.

Regarding `Cn1cc(C[C@H](N)C(=O)O)c2ccccc21` [Example 1-MT, 1-methyl-tryptophan], in experiment [1], the formation of tumors entry was “markedly delayed”. Moreover, in experiment [2], the growth of tumors result is given as “inhibited”.

In the case of `ON=C(Nc1ccc(F)c(Cl)c1)c1cc(OCCCN2CCCC2)no1` [Example 2, N-(3-Chloro-4-fluorophenyl)-N′-hydroxy-3-(3-pyrrolidin-1-ylpropoxy)isoxazole-5-carboximidamide], in experiment [3], the pIC50 – broadly, −log10 of the IC50, conventionally taken in molar units – is less than 5.00.

Turning to `ON=C(Nc1ccc(F)c(Cl)c1)c1cc(N2CCOCC2)no1` [Example 3, N-(3-Chloro-4-fluorophenyl)-N′-hydroxy-3-morpholin-ylisoxazole-5-carboximidamide], in experiment [3], the pIC50 was less than 5.00.

`CC(=O)Nc1cc(C(=NO)NCc2cc(Cl)ccc2C)on1` [Example 22, N-[5-[(5-chloro-2-methylbenzyl)amino](hydroxyimino)methyl]isoxazol-3-ylacetamide] gave a pIC50 in experiment [3] of less than 5.00.
